{
  "source": "patent US11285125B2",
  "about": "“Oxidative retinal diseases” (priority 2011, dated 2022)",
  "key": {"[1]": {"test_system": "coq null mutants (Q-less yeast)", "settings": "for viability of coq null mutants after fatty acid treatment: 200 μM fatty acid, plate dilution assay; for viability of cells by quantitative colony counting: colony counting at 1, 2 and 4 h", "protocol": "Yeast coq3, coq7 and coq9 null mutants were prepared in the W303 yeast genetic background (WT). […] Cells were washed twice with sterile water and resuspended in phosphate buffer (0.10 M sodium phosphate, pH 6.2, 0.2% dextrose) to an OD600 nm=0.2. Samples were removed and 1:5 serial dilutions starting at 0.20 OD/ml were plated on YPD plate medium, to provide a zero time untreated control (shown in top left panel). The designated fatty acids were added to 200 μM final concentration to 20 ml of yeast in phosphate buffer. At 2 h, 4 h, and 16 h samples were removed, 1:5 serial dilutions prepared, and spotted onto YPD plate medium. Pictures were taken after 2 days of growth at 30° C. This panel is representative of two independent assays, performed on different days.\nThe fatty acid sensitive assay was performed as described in FIG. 6-1, except that 100 μl aliquots were removed at 1, 2, and 4 h and, following dilution, spread onto YPD plates. Pictures were taken after 2 to 2.5 days, and the number of colonies counted. Yeast strains include Wild type (circles), atp2 (triangles), or coq3 (squares); Fatty acid treatments include oleic C18:1 (solid line), linolenic, C18:3, n-3 (dashed line) or 11,11,14,14-D4-linolenic, C18:3, n-3, (dotted line).\nA plate dilution assay can be used to assess PUFA sensitivity. This assay can be performed by spotting serial five-fold dilutions of aliquots onto YPD plate media (FIG. 3). The sensitivity of the different strains can be observed by visual inspection of the density of cells in each spot."}, "[2]": {"test_system": "coq null mutants (Q-less yeast)", "settings": "cited from earlier work; for sensitivity of Q-less yeast to fatty acid treatment: compared with wild-type parental strain"}, "[3]": {"assay": "Kinetics of O2 consumption during non-enzymatic chain oxidation in chlorobenzene initiated by AMVN", "type": "physicochemical", "settings": "for rate of oxidation, ROX: 0.71 M in chlorobenzene, 40 mM AMVN, 37° C.", "experimental": "FIG. 7. Kinetics of O2 consumption accompanied the oxidation of 0.71 M LA (plots 1 and 2) and 0.71 M D2-LA (plot 3) in chlorobenzene initiated by 40 mM AMVN at 37° C. Plot 2-0.23 mM HPMC was added to 0.71 M LA.\nThe kinetics of oxygen consumption during the oxidation of LA and D2-LA was studied with a glass capillary microvolumeter (FIG. 7). The rate of oxidation, ROX, was measured as a slope of [O2] traces. The rate of initiation, RIN, was determined by the inhibitor method with HPMC (“6-hydroxy-2,2,5,7,8-pentamethylbenzochroman”) as a reference inhibitor. RIN was calculated from the induction period of inhibited oxidation, tIND: RIN=2·[HPMC]/tIND. […] When the process was inhibited by 0.23 mM chain-breaking antioxidant HPMC, the duration of the induction period, tIND, was about 48 min, with the RIN value of around 0.16×10^−6 M/s. […] The latter precludes a direct determination of RIN. […] An estimated kinetic isotope effect (“KIE”), from comparison of ROX for LA and D2-LA, was around 6.1×10^−6/0.18×10^−6≈35. A similar KIE was determined during the oxidation of LA and 11,11-d2-LA in Triton X-100 aqueous micelles (data not shown). For comparative purposes, the theoretical KIE is 6.9 at 25° C. See Carpenter, “Determination of Organic Reaction Mechanisms” (John Wiley & Sons, 1984), p. 89."}, "[4]": {"test_system": "wild-type yeast (W303)", "settings": "four hour treatment, strain W303-1B background; cited from earlier work"}, "[5]": {"assay": "Rate of oxidation of mixtures of LA and D2-LA in chlorobenzene", "type": "physicochemical", "experimental": "FIG. 8. Dependence of the rate of oxidation of the mixture of LA and D2-LA in chlorobenzene solution on mixture composition. Conditions: [LA]+[11,11-d2-LA]=0.775 M; [AMVN]=0.0217 M; 37° C. RIN=(1.10±0.08)×10^−7 M/sec.\nTo simulate the likely in vivo conditions, the kinetics of the oxidation of the mixtures of D2-LA and LA were studied (FIG. 8). In the experiments, the concentration of LA plus 11,11-d2-LA was 0.775 M; the concentration of AMVN was 0.0217 M; and the reactions were carried out at 37° C. The results afforded an RIN of 1.10±0.08×10^−7 M/sec."}, "[6]": {"test_system": "Wild-type yeast cells", "assay": "Copper-stress lipid peroxidation assay (C11-Bodipy 581/591 fluorescence)", "type": "cell-based, S. cerevisiae", "settings": "200 μM fatty acid 2 hours, then 50 μM CuSO4 60 min", "experimental": "Wild-type yeast cells were treated as described above except the yeast were treated with 200 μM of the designated fatty acid for 2 hours, washed with sterile water, and were either not treated (triangles) or treated with 50 μM CuSO4 (squares) at room temperature. After 60 min of copper treatment cells were treated with 8 μM C11-Bodipy 581/591 for 30 min at room temperature. Four 100 μl aliquots were plated in a 96-well plate and the fluorescence was measured."}, "[7]": {"test_system": "Q-less coq3 yeast", "protocol": "Wild-type, yeast Q-less coq3, or respiratory deficient con 1 null mutants were incubated in the presence of 200 μM of LA and D2-LA at different ratios of PUFAs. Serial dilutions (1:5) starting at 0.2 OD/ml were spotted on YPD solid plate medium. A zero-time untreated control is shown on the top left. Growth at 30° C.\nWild-type, yeast Q-less coq3, or respiratory deficient con 1 null mutants were incubated in the presence of 200 μM of ALA and D4-LA at different ratios of PUFAs. Serial dilutions (1:5) starting at 0.2 OD/ml were spotted on YPD solid plate medium. Growth at 30° C.\nWild-type, yeast Q-less coq3, or respiratory deficient cor1 null mutants were incubated in the presence of 200 μM of LA and D2-LA at different ratios of PUFAs, as indicated in FIG. 9. Serial dilutions (1:5) starting at 0.20D/ml were spotted on YPD solid plate medium. […] Growth was at 30° C.\nThe experimental protocol described for Example 14 was also reproduced in vivo using Q-less coq3 yeast strains (FIG. 10) and different ratios of ALA to D4-ALA. Wild-type, yeast Q-less coq3, or respiratory deficient cor1 null mutants were incubated in the presence of 200 μM of ALA and D4-Lnn (Linolenic acid) at different ratios of PUFAs, as indicated in FIG. 10. Serial dilutions (1:5) starting at 0.2 OD/ml were spotted on YPD solid plate medium. Growth was at 30° C."}, "[8]": {"settings": "70 kg person; cited from earlier work"}},
  "note": "Where two headings read alike, the source gives them in different places.",
  "data": [
    {"smiles": "[2H]C([2H])(/C=C\\CC)/C=C\\CC/C=C\\CCCCCCC(=O)O", "note": "[14, 14-D2-linolenic acid, 14,14-Dideutero-cis,cis,cis-octadeca-8,12,15-trienoic acid]", "values": [
      {"measurement": "viability of coq null mutants after fatty acid treatment", "setting": "[1]", "result": "comparable protection"}
    ]},
    {"smiles": "CCCCC/C=C\\C/C=C\\C/C=C\\C/C=C\\CCCC(=O)O", "note": "[arachidonic acid]", "values": [
      {"measurement": "sensitivity of Q-less yeast to fatty acid treatment", "setting": "[2]", "result": "hypersensitive"}
    ]},
    {"smiles": "[2H]C([2H])(/C=C\\C/C=C\\CC)C/C=C\\CCCCCCC(=O)O", "note": "[11, 11-D2-linolenic acid, 11,11-Dideutero-cis,cis,cis-octadeca-8,12,15-trienoic acid]", "values": [
      {"measurement": "viability of coq null mutants after fatty acid treatment", "setting": "[1]", "result": "comparable protection"}
    ]},
    {"smiles": "CCCCCCCC/C=C\\CCCCCCCC(=O)O", "note": "[oleic acid, reference compound]", "values": [
      {"measurement": "viability of cells by quantitative colony counting", "setting": "[1]", "result": "similar"},
      {"measurement": "sensitivity of Q-less yeast to fatty acid treatment", "setting": "[2]", "result": "behave the same as the wild-type parental strain"}
    ]},
    {"smiles": "CCCCC/C=C\\C/C=C\\CCCCCCCC(=O)O", "note": "[LA, cis,cis-9,12-Octadecadienoic acid, reference compound]", "values": [
      {"measurement": "length of the kinetic chain, ν=ROX/RIN", "setting": "[3]", "result": "38±3"},
      {"measurement": "rate of oxidation, ROX", "setting": "[3]", "result": "6.1e-06", "unit": "M/s"},
      {"measurement": "rate of initiation, RIN", "setting": "[3]; calculated from induction period, RIN=2·[HPMC]/tIND", "result": "around 0.16×10^−6 M/s"},
      {"measurement": "calculated oxidizability", "setting": "[3]; n=5", "result": "0.0215±0.008", "unit": "M^−0.5 s^−0.5"}
    ]},
    {"smiles": "CC/C=C\\C/C=C\\C/C=C\\CCCCCCCC(=O)O", "note": "[linolenic acid, cis,cis,cis-9,12,15-Octadecatrienoic acid]", "values": [
      {"measurement": "viability of coq null mutants after fatty acid treatment", "setting": "[1]", "result": "dramatic loss of viability"},
      {"measurement": "viable Q-less (coq2, coq3, and coq5) yeast mutants", "setting": "[2]; four hour treatment", "result": "Less than 1%"},
      {"measurement": "wild-type cells that remain viable", "setting": "[4]", "result": 70, "unit": "%"}
    ]},
    {"smiles": "[2H]C([2H])(/C=C\\CCCCC)/C=C\\CCCCCCCC(=O)O", "note": "[D2-LA, 11,11-Dideutero-cis,cis-9,12-Octadecadienoic acid]", "values": [
      {"measurement": "length of the kinetic chain, ν=ROX/RIN", "setting": "[3]", "result": "≈ 1.1"},
      {"measurement": "rate of oxidation, ROX", "setting": "[3]", "result": "1.8e-07", "unit": "M/s"},
      {"measurement": "effect of addition of HPMC on oxidation", "setting": "[3]; data not shown", "result": "did not result in the decrease in ROX and the appearance of any detectable induction period"},
      {"measurement": "estimated kinetic isotope effect (KIE)", "setting": "[3]; from comparison of ROX for LA and D2-LA", "result": "≈ 35"},
      {"measurement": "effect in mixture with non-deuterated methyl linoleate", "setting": "[5]; data not shown", "result": "qualititatively similar effect"},
      {"measurement": "effect of D2-LA on autoxidation of non-deuterated LA", "setting": "[5]; mixtures with LA", "result": "‘protects’ the non-deuterated LA against autoxidation"},
      {"measurement": "levels of lipid peroxidation", "setting": "[6]", "result": "lower levels of lipid peroxidation similar to yeast not treated with PUFA"},
      {"measurement": "minimal amount of D2-LA to cancel the toxicity of LA", "setting": "[7]; 200 μM total LA and D2-LA at different ratios", "result": "10-15%"}
    ]},
    {"smiles": "[2H]C([2H])(/C=C\\CC)/C=C\\C([2H])([2H])/C=C\\CCCCCCCC(=O)O", "note": "[D4-ALA, 11,11,14,14-Tetradeutero-cis,cis,cis-9,12,15-Octadecatrienoic acid]", "values": [
      {"measurement": "viability of coq null mutants after fatty acid treatment", "setting": "[1]; listed as D4-linolenic acid", "result": "resistant to PUFA-mediated cell killing"},
      {"measurement": "viability of cells by quantitative colony counting", "setting": "[1]", "result": "similar"},
      {"measurement": "minimal amount of deuterated Lnn to cancel the toxicity of ALA", "setting": "[7]; 200 μM total ALA and D4-Lnn at different ratios", "result": "15-20%"}
    ]},
    {"smiles": "[2H]C(/C=C\\CCCCC)/C=C\\CCCCCCCC(=O)O", "note": "(stereo not shown) [11,11-D,H-LA, [11-^2H]-linoleic acid]", "values": [
      {"measurement": "loss in cell viability", "setting": "[7]; after 3 hours of treatment, data not shown", "result": "no detectable loss in cell viability"}
    ]},
    {"smiles": "[2H]O[2H]", "note": "[heavy water]", "values": [
      {"measurement": "amount that might be drunk without serious consequences", "setting": "[8]", "result": 4.8, "unit": "L"}
    ]}
  ]
}
